Assay [1] addresses T1, caspase-1 (Homo sapiens, UniProt P29466).
T1 construct: p10 and p20 subunits (Thornberry, N. A. et al, Nature, 1992, 356, 768) were expressed in E. coli; made in house; host or cells: E. coli
T1 sequence (P29466 120-297 limits assumed): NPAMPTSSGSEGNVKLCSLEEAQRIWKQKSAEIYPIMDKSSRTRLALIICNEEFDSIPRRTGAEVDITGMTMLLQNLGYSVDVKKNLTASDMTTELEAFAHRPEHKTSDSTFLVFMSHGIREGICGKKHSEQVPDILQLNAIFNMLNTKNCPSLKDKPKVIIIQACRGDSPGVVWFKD
T1 sequence (P29466 317-404 limits assumed): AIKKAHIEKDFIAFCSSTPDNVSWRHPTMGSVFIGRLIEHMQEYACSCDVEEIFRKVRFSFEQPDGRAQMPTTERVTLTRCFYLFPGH
Briefly: Caspase-1 inhibitory effect (fluorescent substrate AcYVAD-AFC). In kind it is biochemical. Conditions: pH 7.5; 25° C., 50 μM AcYVAD-AFC, 10 nM caspase-1; read-out: Caspase-1 Kobs/[I] (converted). On the procedure:
(§1) Caspase-1 and caspase-8 known as cysteine proteases in the form of α2β2 were expressed, purified, and activated by modifying a method known in Thornberry, N. A. et al, Nature, 1992, 356, 768. Thornberry, N. A. Methods in Enzymology, 1994, 244, 615. Walker, N. P. C. et al. Cell, 1994, 78, 343, and caspase-9 was also purified by a similar method, and the inhibitory activity against them was tested. Briefly describing, p10 and p20 subunits (Thornberry, N. A. et al, Nature, 1992, 356, 768) were expressed in E. coli and purified by nickel column and anionic exchange chromatography to give caspase-1, caspase-8 and caspase-9. The fluorescent substrate AcYVAD-AFC for thus obtained caspase-1, AcDEVD-AFC for caspase-8, and AcLEHD-AFC for caspase-9 were used for determining specific activity of the synthesized inhibitors. The enzyme reaction was carried out at 25° C. with various concentrations of the inhibitors in a buffer solution containing 50 mM HEPES(pH 7.50), 10% (w/v) sucrose, 0.1% (w/v) CHAPS, 100 mM NaCl, 1 mM EDTA, and 10 mM DTT in the presence of 50 μM AcYVAD-AFC for 10 nM caspase-1, 50 μM AcDEVD-AFC for 2.1 nM caspase-8, and 150 μM AcLEHD-AFC for 200 nM caspase-9. The inhibitory constants Ki and Kobs of the inhibitors were determined by measuring the reaction velocity with the time lapse using a fluorescent spectrometer and by obtaining the initial rate constant. Ki was calculated from the Lineweaver Burk Plot, and Kobs from the following Equation 1. Kobs=−ln(1−At/Aoo)/t Equation 1
(§2) At means cleavate rate (%) at time t, and
(§3) Aoo means the maximum cleavage rate (%).
(§4) Spectra MAX GeminiXS Fluorescent Spectrometer of Molecular Device Co. was used at the excitation wavelength of 405 nm and the emission wavelength of […].

Assay [2] deals with Jurkat cell (ATCC TIB-152). Briefly: Jurkat cell apoptosis by Fas antibody, WST-1 method. In kind it is cell-based. The following applies: Homo sapiens, Jurkat, apoptosis using Fas antibody, WST-1. On the procedure:
The […] inhibitory activity of the inhibitors was determined by subjecting Jurkat cell (ATCC TIB-152) to apoptosis using Fas antibody (Upstate Biotech 05-201) and by detecting the color change according to the WST-1 method known in Francoeur A. M. and Assalian A. (1996) Biochemica 3, 19-25 to observe the amount of alive Jurkat cells when the cells were treated by the inhibitor. Spectra MAX 340 Spectrometer of Molecular Device Co. was used at the absorbance wavelength of 440 nm.

In assay [3] the target is T2, caspase-8 (Homo sapiens, UniProt Q14790).
T2 construct: p10 and p20 subunits (Thornberry, N. A. et al, Nature, 1992, 356, 768) were expressed in E. coli; made in house; host or cells: E. coli
T2 sequence (Q14790 217-374 limits assumed, species assumed): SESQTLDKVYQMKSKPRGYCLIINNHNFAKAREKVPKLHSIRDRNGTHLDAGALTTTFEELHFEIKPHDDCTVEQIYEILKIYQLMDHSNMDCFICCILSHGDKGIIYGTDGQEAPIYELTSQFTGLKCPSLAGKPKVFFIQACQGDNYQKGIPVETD
T2 sequence (Q14790 385-479 limits assumed, species assumed): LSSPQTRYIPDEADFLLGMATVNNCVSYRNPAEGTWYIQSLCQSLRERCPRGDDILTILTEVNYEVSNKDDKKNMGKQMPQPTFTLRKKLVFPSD
The experiment in a line: Caspase-8 inhibitory effect (fluorescent substrate AcDEVD-AFC). In kind it is biochemical. Conditions: pH 7.5; 25° C., 50 μM AcDEVD-AFC, 2.1 nM caspase-8; read-out: Caspase-8 Kobs/[I] (converted). On the procedure: as §1, §2, §3, §4

Assay [4] concerns the target T3, caspase-9 (Homo sapiens, UniProt P55211).
T3 construct: p10 and p20 subunits (Thornberry, N. A. et al, Nature, 1992, 356, 768) were expressed in E. coli; made in house; host or cells: E. coli
T3 sequence (P55211 1-315 limits assumed): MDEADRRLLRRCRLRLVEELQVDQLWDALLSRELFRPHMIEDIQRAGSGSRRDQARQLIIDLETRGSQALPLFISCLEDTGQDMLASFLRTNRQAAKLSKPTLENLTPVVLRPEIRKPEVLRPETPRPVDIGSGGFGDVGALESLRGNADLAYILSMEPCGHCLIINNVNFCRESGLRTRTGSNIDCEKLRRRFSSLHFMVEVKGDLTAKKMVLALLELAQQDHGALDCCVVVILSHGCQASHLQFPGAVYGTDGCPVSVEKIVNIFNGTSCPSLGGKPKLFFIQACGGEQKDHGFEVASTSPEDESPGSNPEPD
T3 sequence (P55211 331-416 limits assumed): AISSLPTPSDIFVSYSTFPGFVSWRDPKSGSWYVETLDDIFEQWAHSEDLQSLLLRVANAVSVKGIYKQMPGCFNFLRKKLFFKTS
The experiment in a line: Caspase-9 inhibitory effect (fluorescent substrate AcLEHD-AFC). In kind it is biochemical. The following applies: pH 7.5; 25° C., 150 μM AcLEHD-AFC, 200 nM caspase-9; read-out: Caspase-9 Kobs/[I] (converted). On the procedure: as §1, with “The enzyme reaction was carried out at 25° C. with various concentrations of the inhibitors in a buffer solution containing 50 mM HEPES(pH 7.50), 10% (w/v) sucrose, 0.1% (w/v) CHAPS, 100 mM NaCl, 1 mM EDTA, and 10 mM DTT in the presence of 50 μM AcYVAD-AFC for 10 nM caspase-1, 50 μM AcDEVD-AFC for 2.1 nM caspase-8, and 150 μM AcLEHD-AFC for 200 nM caspase-9.” left out, “Kobs=−ln(1−At/Aoo)/t Equation 1” left out

The structures appear in SMILES notation.

As for `CCC1(C(=O)N[C@@H](CC(=O)O)C(=O)COc2c(F)c(F)cc(F)c2F)CC(c2ccccc2)=NO1` (stereo partly drawn) [Icc, (3S)-3-{[(5-ethyl-3-phenyl-4,5-dihydro-5-isoxazolyl)carbonyl]amino}-4-oxo-5-(2,3,5,6-tetrafluorophenoxy)pentanoic acid], the kinact/KI in assay [1] is 3170 M⁻¹ s⁻¹; in assay [3], 550 M⁻¹ s⁻¹. For the same molecule, in assay [2], the IC50 was determined as 22.5 µM.

For `CCC1(C(=O)N[C@@H](CC(=O)O)C(=O)COc2c(F)c(F)cc(F)c2F)CC(c2cccc3ccccc23)=NO1` (stereo partly drawn) [Idd, (3S)-3-({[5-ethyl-3-(1-naphthyl)-4,5-dihydro-5-isoxazolyl]carbonyl}amino)-4-oxo-5-(2,3,5,6-tetrafluorophenoxy)pentanoic Acid], the results for the kinact/KI in assay [1] and in assay [3] were 5170 M⁻¹ s⁻¹ and 3170 M⁻¹ s⁻¹, respectively. 4.25 µM corresponded to half-maximal inhibition in assay [2] (IC50).

With `CCC1(C(=O)NC(CC(=O)O)C(=O)CF)CC(c2nccc3ccccc23)=NO1` (centres unmarked) [Igg, 3-({[5-Ethyl-3-(1-isoquinolinyl)-4,5-dihydro-5-isoxazolyl]carbonyl}amino)-5-fluoro-4-oxopentanoic acid], the kinact/KI in assay [1] was 45000 M⁻¹ s⁻¹; in assay [3], 25000 M⁻¹ s⁻¹; in assay [4], 5330 M⁻¹ s⁻¹. Besides, in assay [2], the half-maximal inhibitory concentration (IC50) came to 0.17 µM.

For the molecule `CCC1(C(=O)N[C@@H](CC(=O)O)C(=O)COc2c(F)c(F)cc(F)c2F)CC(COc2cccc3ccccc23)=NO1` (stereo partly drawn) [Ipp, (3S)-3-[({5-Ethyl-3-[(1-naphthyloxy)methyl]-4,5-dihydro-5-isoxazolyl]carbonyl)amino]-4-oxo-5-(2,3,5,6-tetrafluorophenoxy)pentanoic acid], the values for the kinact/KI in assay [1] and in assay [3] were 38300 M⁻¹ s⁻¹ and 2830 M⁻¹ s⁻¹, respectively. For the same molecule, in assay [2], the IC50 was 3.5 µM.

Regarding `CCC1(C(=O)N[C@@H](CC(=O)O)C(=O)COc2c(F)c(F)cc(F)c2F)CC(COc2ccc(Cl)c3ccccc23)=NO1` (stereo partly drawn) [Iqq, (3S)-3-{[(3-{[(4-Chloro-1-naphthyl)oxy]methyl}-5-ethyl-4,5-dihydro-5-isoxazolyl)carbonyl]amino}-4-oxo-5-(2,3,5,6-tetrafluorophenoxy)pentanoic acid], the values for the kinact/KI in assay [1] and in assay [3] were 55000 M⁻¹ s⁻¹ and 2330 M⁻¹ s⁻¹, respectively. In addition, in assay [2], the IC50 came out at 37 µM.

In turn, `CCC1(C(=O)NC(CC(=O)O)C(=O)CF)CC(c2cnc3ccccc3c2)=NO1` (centres unmarked) [Iyy, 3-({[5-ethyl-3-(3-quinolinyl)-4,5-dihydro-5-isoxazolyl]carbonyl}amino)-5-fluoro-4-oxopentanoic acid] had a half-maximal inhibitory concentration (IC50) in assay [2] of 31.2 µM. In assay [3], the kinact/KI is 5170 M⁻¹ s⁻¹.

`CC(C)[C@@]1(C(=O)NC(CC(=O)O)C(=O)CF)CC(c2ccc3ccccc3n2)=NO1` (stereo partly drawn) [Izz, 5-Fluoro-3-({[(5R)-5-isopropyl-3-(2-quinolinyl)-4,5-dihydro-5-isoxazolyl]carbonyl}amino)-4-oxopentanoic Acid] came in with a half-inhibitory concentration (IC50) in assay [2] of 1.25 µM. In addition, in assay [3], the kinact/KI was 7000 M⁻¹ s⁻¹.

For the origin of these results see patent US7557133B2, “Caspase inhibitors containing isoxazoline ring” (LG Life Sciences Ltd., priority 2003, dated 2009).
